From patent publication US12544375B2, “Small molecule therapeutic for parkinson's disease paired with a biomarker of therapeutic activity” (The Board of Trustees of the Leland Stanford Junior …, priority 2019, dated 2026)

System: LRRK2^G2019S, PINK1 null and SNCA^A53T flies
Experiment: Dopaminergic neuron number in fly PD models (anti-TH)
Type: in vivo
Conditions: 2.5 μM in food, all three PD models
Method: FIG. 4A-FIG. 4I. Miro1 Reducer Rescues PD-Relevant Phenotypes in Flies. For all panels, when Miro1 Reducer was not added, the same volume of the solvent, DMSO, was supplied in fly food. Drug administration (2.5 μM) was started from day 2. (FIG. 4A-FIG. 4C) Survival curves of LRRK2^G2019S (FIG. 4A), PINK1^B9 (imprecise excision, null) and PINK1^RV (the precise excision control for PINK1^B9) (FIG. 4B), and SNCA^A53T flies (FIG. 4C). n=58-150. (FIG. 4D) Dopaminergic (DA) neurons in the PPM1/2 clusters of 22-day old flies were immunostained with anti-TH. (FIG. 4D-FIG. 4F) Quantification of the DA neuron number in the PPL1 or PPM1/2 cluster (total number divided by 2 for each brain). (FIG. 4D) LRRK2^G2019S. n=6-8 brains. (FIG. 4E) PINK1^B9 (“−”) and PINK1^RV (“+”). n=9-16. (FIG. 4F) SNCA^A53T. n=9-11. […]
Immunocytochemistry and Confocal Microscopy. PI (P4170, Sigma) at 2.5 μg/ml or 4′, 6-Diamidino-2-phenylindole (Dapi-D9542, Sigma) at 0.5 μg/ml was applied in culture media at room temperature in the dark for 10 min, MitoSox (M36008, Invitrogen) at 2 μM was applied in culture media at 37° C. for 10 min, or TMRM (T668, Molecular Probes) at 25 nM was applied in culture media at 37° C. for 30 min, and cells were washed with HBSS and imaged immediately in a 35-mm petridish containing the Hibernate E low-fluorescence medium with a 63×/N.A.0.9 water-immersion objective. […]

Structure (SMILES): O=C(Nc1ccc(Nc2cc(-n3ccnc3)ncn2)cc1)Nc1cccc(F)c1 [Miro1 Reducer]
- age-dependent dopaminergic neuronal loss: significantly rescued
